Results as given in patent publication US11020399B2, “Intermediates useful in the synthesis of compounds as modulators of protein kinases” (Rhizen Pharmaceuticals SA, priority 2011, dated 2021).

Key:
PI3kγ = PI3kγ (Homo sapiens, UniProt P48736); assay: Fluorescent (HTRF) determination of PI3 kinase enzyme activity, PI3Kγ; type: biochemical
Outline: (§1)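 HTRF detection of PIP3 from PIP2 (1.38 μM in reaction mix) with 10 mM MgCl2, 5 mM DTT; compound preincubated with enzyme 10 min, then ATP (400 μM addition) 30 min at room temperature. Percent inhibition versus blank and enzyme controls at 1 μM (α, β) and 0.3 or 0.1 μM (γ, δ); IC50 also fitted.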

PI3kδ = PI3kδ (Homo sapiens, UniProt O00329); assay: Fluorescent (HTRF) determination of PI3 kinase enzyme activity, PI3Kδ; type: biochemical
Outline: as §1

PI3kβ = PI3kβ (Homo sapiens, UniProt P42338); assay: Fluorescent (HTRF) determination of PI3 kinase enzyme activity, PI3Kβ; type: biochemical; conditions: 1 uM
Outline: as §1

Chain of PI3kβ (P42338 whole entry): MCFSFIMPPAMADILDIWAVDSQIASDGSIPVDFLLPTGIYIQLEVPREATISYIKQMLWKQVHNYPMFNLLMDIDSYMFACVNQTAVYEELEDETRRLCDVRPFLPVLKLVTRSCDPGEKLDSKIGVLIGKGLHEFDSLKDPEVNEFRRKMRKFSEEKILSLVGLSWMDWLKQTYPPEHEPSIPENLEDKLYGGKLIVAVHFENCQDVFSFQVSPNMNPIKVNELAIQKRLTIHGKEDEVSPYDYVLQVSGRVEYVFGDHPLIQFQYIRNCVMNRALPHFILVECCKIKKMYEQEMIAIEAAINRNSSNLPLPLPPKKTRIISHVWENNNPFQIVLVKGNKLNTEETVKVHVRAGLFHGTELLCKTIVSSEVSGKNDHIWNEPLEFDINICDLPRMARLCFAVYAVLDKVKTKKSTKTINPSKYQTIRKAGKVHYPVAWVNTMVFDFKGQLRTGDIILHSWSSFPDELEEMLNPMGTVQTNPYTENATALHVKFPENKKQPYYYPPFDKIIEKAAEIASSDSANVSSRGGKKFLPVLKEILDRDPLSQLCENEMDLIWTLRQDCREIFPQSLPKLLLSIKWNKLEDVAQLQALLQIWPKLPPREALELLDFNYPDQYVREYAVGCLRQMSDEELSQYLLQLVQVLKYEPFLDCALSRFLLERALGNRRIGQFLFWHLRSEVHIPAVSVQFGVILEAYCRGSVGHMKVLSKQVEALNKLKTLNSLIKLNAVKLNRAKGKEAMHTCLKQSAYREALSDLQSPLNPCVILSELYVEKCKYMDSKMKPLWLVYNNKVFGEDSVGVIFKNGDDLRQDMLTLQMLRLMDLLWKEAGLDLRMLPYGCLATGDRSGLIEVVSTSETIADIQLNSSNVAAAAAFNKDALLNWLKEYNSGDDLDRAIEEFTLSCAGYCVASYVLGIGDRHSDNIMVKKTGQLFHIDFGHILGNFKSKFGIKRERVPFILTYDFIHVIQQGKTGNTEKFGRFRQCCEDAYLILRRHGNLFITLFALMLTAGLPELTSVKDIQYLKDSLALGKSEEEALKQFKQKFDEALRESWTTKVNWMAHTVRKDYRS
Chain of PI3kβ (P27986 whole entry partner): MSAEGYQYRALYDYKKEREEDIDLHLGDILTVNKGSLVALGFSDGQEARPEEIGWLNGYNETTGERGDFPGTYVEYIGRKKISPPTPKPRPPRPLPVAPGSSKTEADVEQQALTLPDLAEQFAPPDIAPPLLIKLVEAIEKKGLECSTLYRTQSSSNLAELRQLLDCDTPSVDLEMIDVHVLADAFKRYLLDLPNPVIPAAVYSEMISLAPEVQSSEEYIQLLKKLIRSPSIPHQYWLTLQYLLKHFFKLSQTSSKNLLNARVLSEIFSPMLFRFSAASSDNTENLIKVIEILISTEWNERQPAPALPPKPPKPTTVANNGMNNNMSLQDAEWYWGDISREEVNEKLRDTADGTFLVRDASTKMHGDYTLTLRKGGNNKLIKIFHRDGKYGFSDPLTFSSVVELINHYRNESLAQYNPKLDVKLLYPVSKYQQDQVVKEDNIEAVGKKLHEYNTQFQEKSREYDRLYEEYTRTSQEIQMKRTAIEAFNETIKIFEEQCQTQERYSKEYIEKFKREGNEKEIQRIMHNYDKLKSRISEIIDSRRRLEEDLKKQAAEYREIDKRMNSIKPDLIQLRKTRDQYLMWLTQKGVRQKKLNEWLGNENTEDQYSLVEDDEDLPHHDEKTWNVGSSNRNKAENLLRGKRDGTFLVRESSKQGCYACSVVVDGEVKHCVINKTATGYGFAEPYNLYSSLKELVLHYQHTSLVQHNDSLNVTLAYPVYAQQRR
Chain of PI3kδ (O00329 whole entry): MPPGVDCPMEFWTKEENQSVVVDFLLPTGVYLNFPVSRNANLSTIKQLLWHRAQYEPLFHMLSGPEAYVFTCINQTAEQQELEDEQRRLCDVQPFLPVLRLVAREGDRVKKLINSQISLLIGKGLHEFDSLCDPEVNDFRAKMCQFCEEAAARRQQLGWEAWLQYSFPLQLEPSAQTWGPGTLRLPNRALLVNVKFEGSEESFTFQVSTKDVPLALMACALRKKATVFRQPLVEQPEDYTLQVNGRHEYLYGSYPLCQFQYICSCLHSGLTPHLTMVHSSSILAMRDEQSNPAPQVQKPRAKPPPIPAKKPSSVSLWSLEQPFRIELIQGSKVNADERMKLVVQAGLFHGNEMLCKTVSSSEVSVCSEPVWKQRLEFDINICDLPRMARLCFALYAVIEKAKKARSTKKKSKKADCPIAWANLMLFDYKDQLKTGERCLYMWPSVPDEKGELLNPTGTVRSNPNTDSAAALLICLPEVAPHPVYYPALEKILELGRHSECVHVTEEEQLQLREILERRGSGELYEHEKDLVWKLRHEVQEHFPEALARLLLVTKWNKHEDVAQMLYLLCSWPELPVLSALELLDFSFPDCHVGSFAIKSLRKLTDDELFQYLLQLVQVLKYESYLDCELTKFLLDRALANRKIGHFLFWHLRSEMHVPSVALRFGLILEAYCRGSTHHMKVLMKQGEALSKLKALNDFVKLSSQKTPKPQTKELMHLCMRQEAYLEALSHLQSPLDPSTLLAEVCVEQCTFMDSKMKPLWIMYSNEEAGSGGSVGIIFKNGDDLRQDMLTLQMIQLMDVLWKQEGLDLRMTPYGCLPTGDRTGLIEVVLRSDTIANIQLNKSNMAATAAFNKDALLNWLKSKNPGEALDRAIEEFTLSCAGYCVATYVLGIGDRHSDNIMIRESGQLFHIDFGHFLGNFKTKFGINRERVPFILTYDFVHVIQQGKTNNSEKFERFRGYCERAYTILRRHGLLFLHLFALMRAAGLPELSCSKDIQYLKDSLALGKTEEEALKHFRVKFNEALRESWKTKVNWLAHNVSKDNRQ
Chain of PI3kδ (P27986 whole entry partner): as the sequence (P27986 whole entry partner) above
Chain of PI3kγ (P48736 whole entry): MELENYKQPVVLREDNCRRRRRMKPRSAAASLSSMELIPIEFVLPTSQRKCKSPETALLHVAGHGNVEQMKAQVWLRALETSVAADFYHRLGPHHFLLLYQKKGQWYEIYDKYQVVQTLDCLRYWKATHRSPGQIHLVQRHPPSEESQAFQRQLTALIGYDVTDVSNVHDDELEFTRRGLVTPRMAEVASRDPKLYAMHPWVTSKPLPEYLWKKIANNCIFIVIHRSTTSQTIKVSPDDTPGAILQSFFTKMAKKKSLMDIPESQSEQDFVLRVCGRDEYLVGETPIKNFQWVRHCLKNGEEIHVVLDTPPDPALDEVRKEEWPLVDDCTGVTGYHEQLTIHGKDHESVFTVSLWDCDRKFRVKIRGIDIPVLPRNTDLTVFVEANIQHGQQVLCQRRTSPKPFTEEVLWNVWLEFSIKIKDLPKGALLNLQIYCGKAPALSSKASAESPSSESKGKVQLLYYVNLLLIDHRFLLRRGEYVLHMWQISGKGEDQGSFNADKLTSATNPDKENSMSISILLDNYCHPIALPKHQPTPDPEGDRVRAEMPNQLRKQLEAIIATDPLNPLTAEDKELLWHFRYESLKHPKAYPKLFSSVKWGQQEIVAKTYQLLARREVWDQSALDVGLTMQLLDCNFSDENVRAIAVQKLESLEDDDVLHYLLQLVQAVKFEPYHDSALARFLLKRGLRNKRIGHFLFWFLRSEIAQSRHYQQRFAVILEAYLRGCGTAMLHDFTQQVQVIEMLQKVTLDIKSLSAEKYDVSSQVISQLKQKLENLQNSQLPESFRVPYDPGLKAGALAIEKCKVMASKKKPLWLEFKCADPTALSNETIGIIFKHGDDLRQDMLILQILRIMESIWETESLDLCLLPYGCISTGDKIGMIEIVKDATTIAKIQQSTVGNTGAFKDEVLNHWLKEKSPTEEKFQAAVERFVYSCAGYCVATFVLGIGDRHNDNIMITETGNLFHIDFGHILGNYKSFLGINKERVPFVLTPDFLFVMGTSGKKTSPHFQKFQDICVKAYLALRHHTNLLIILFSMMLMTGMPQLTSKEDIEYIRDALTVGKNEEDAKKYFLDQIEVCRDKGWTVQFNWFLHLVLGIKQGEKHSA

Row | SMILES | inhibition at 0.1 µM (PI3kγ; 100 nM (Examples 60-137)) | melting point | inhibition at 0.1 µM (PI3kδ; 100 nM (Examples 60-137)) | inhibition at 1 µM (PI3kβ) | IC50 (PI3kγ) | inhibition at 0.3 µM (PI3kγ; 300 nM (Examples 1-59)) | inhibition at 0.3 µM (PI3kδ; 300 nM (Examples 1-59)) | IC50 (PI3kδ) | % inhibition (PI3kγ) 100 nM (PI3kγ; 100 nM (Examples 60-137)) | % inhibition (PI3kδ) 100 nM (PI3kδ; 100 nM (Examples 60-137), 0.1 µM)
1 | CC(c1oc2cccc(F)c2c(=O)c1-c1cccc(F)c1)n1cnc2c(N(C)C)ncnc21 (single isomer, unassigned) [Example 130] | 25 to 50% | 198 to 200 °C | 25 to 50% | 25 to 50% | – | – | – | – | – | –
2 | CC(C)C(=O)Nc1ccc(-c2nn(C(C)c3oc4cccc(F)c4c(=O)c3-c3cccc(F)c3)c3ncnc(N)c23)cc1 (centres unmarked) [Example 48, N-(4-(4-amino-1-(1-(5-fluoro-3-(3-fluorophenyl)-4-oxo-4H-chromen-2-yl)ethyl)-1H-pyrazolo[3,4-d]pyrimidin-3-yl)phenyl)isobutyramide] | – | 154 to 157 °C | – | 25 to 50% | ≤ 50 nM | 75 to 100% | 50 to 75% | – | – | –
3 | COC(=O)c1ccc(-c2nn(C(C)c3oc4cccc(F)c4c(=O)c3-c3cccc(F)c3)c3ncnc(N)c23)c(F)c1 (centres unmarked) [Example 64, methyl 4-(4-amino-1-(1-(5-fluoro-3-(3-fluorophenyl)-4-oxo-4H-chromen-2-yl)ethyl)-1H-pyrazolo[3,4-d]pyrimidin-3-yl)-3-fluorobenzoate] | 25 to 50% | 258 to 260 °C | 50 to 75% | 25 to 50% | – | – | – | – | – | –
4 | CC(C)Oc1ccc(-c2nn(C(C)c3oc4cccc(F)c4c(=O)c3-c3cccc(F)c3)c3ncnc(N(C)C)c23)cc1F (centres unmarked) [Example 83, 2-(1-(4-(dimethylamino)-3-(3-fluoro-4-isopropoxyphenyl)-1H-pyrazolo[3,4-d]pyrimidin-1-yl)ethyl)-5-fluoro-3-(3-fluorophenyl)-4H-chromen-4-one] | 75 to 100% | 122 to 124 °C | 75 to 100% | – | ≤ 50 nM | – | – | ≤ 50 nM | – | –
5 | CNc1ncnc2c1c(-c1ccc(OC(C)C)c(F)c1)nn2C(C)c1oc2cccc(F)c2c(=O)c1-c1cccc(F)c1 (centres unmarked) [Example 84, 5-fluoro-2-(1-(3-(3-fluoro-4-isopropoxyphenyl)-4-(methylamino)-1H-pyrazolo[3,4-d]pyrimidin-1-yl)ethyl)-3-(3-fluorophenyl)-4H-chromen-4-one] | – | 193 to 196 °C | – | – | > 500 nM | – | – | ≤ 50 nM | C (C=>25 to 50%) | B (B=>50 to 75%)
6 | CC(c1oc2cccc(F)c2c(=O)c1-c1cn[nH]c1)n1nc(-c2ccc(OC(F)F)c(F)c2)c2c(N)ncnc21 (centres unmarked) [Example 91, 2-(1-(4-amino-3-(4-(difluoromethoxy)-3-fluorophenyl)-1H-pyrazolo[3,4-d]pyrimidin-1-yl)ethyl)-5-fluoro-3-(1H-pyrazol-4-yl)-4H-chromen-4-one] | 25 to 50% | 135 to 138 °C | 25 to 50% | – | – | – | – | – | – | –
7 | CC(C)Oc1ccc(-c2nn(C(C)c3oc4cccc(N5CCOCC5)c4c(=O)c3-c3cccc(F)c3)c3ncnc(N)c23)cc1F (centres unmarked) [Example 120, 2-(1-(4-amino-3-(3-fluoro-4-isopropoxyphenyl)-1H-pyrazolo[3,4-d]pyrimidin-1-yl)ethyl)-3-(3-fluorophenyl)-5-morpholino-4H-chromen-4-one] | 0 to 25% | 227 to 229 °C | 0 to 25% | – | – | – | – | – | – | –
8 | CC(c1oc2cccc(F)c2c(=O)c1-c1cccc(F)c1)n1nc(-c2ccc3c(c2)C(=O)NC3)c2c(N)ncnc21 (centres unmarked) [Example 122, 6-(4-amino-1-(1-(5-fluoro-3-(3-fluorophenyl)-4-oxo-4H-chromen-2-yl)ethyl)-1H-pyrazolo[3,4-d]pyrimidin-3-yl)isoindolin-1-one] | 0 to 25% | 242 to 245 °C | 25 to 50% | – | – | – | – | – | – | –
9 | CCOc1ccc(-c2nn(C(C)c3oc4cccc(F)c4c(=O)c3-c3cccc(F)c3)c3ncnc(N)c23)cc1C(F)(F)F (centres unmarked) [Example 132, 2-(1-(4-amino-3-(4-ethoxy-3-(trifluoromethyl)phenyl)-1H-pyrazolo[3,4-d]pyrimidin-1-yl)ethyl)-5-fluoro-3-(3-fluorophenyl)-4H-chromen-4-one] | 25 to 50% | 225 to 227 °C | 50 to 75% | – | – | – | – | – | – | –
